The values below come from article PMC6332397, “Anti-Protozoal Activities of Cembrane-Type Diterpenes from Vietnamese Soft Corals” (Molecules, 2015).

“And” between values parts separate entries of the source, which are not always exact repeats. Equal entries are not always repeated. Where two headings read alike, the source gives them in different places.

Data set [1] can be described thus: Cytotoxicity assay against L6 cells. The data set is classed as cell-based. To be noted: rat skeletal myoblast L6, mean ± margin of deviation of two independent determinations. The procedure: Cytotoxicity was assessed using rat skeletal myoblasts (L6 cells) and a similar protocol as used for the Tbr assay. […] All following steps were according to the T. b. rhodesiense protocol (see Section 3.3. above).

Data set [2] deals with T. b. rhodesiense STIB 900 bloodstream forms. The data set is described as follows: Anti-trypanosomal activity on T. brucei rhodesiense (Alamar blue). The data set is classed as cell-based, Trypanosoma brucei rhodesiense. The procedure:
Minimum Essential Medium with Earle’s salts (50.0 µL) supplemented with 0.2 mM 2-mercaptoethanol, 1.0 mM Na pyruvate and 15% heat-inactivated horse serum was added to each well of a 96-well microtiter plate. Serial drug dilutions of eleven 3-fold steps covering a range from 100 to 0.002 µM were prepared. Then 10^4 bloodstream forms of T. b. rhodesiense STIB 900 in 50.0 µL of medium were added to each well and the plate incubated at 37 °C under a 5% CO2 atmosphere for 72 h. Alamar blue solution (10.0 µL of a solution of 12.5 mg resazurin dissolved in 100 mL distilled water) were then added to each well and incubation continued for a further 2–4 h. The plate was then read in a Spectramax Gemini XS microplate fluorometer (Molecular Devices Corporation, Sunnyvale, CA, USA) using an excitation wavelength of 536 nm and emission wavelength of 588 nm. Fluorescence development was measured and expressed as percentage of the control. Data were transferred into the graphic programme Softmax Pro (Molecular Devices), which calculated IC50 values.
In general terms: Resazurin is reduced to fluorescent resorufin, in cell work by metabolically active cells.

For data set [3], the system named is P. falciparum NF54 strain. The data set is described as follows: Antiplasmodial activity, [3H]-hypoxanthine incorporation assay. It is filed as cell-based, Plasmodium falciparum. The procedure: Antiplasmodial activity was determined using the NF54 strain of P. falciparum (drug sensitive). A modification of the [^3H]-hypoxanthine incorporation assay was used. […] After 48 h of incubation at 37 °C in a reduced oxygen atmosphere, 0.5 μCi ^3H-hypoxanthine was added to each well. Cultures were incubated for a further 24 h before they were harvested onto glass-fiber filters and washed with distilled water. The radioactivity was counted using a Betaplate™ liquid scintillation counter (Wallac, Zurich, Switzerland). […] From the sigmoidal inhibition curves IC50 values were calculated. Assays were run in duplicate and repeated once.

Data set [4] relates to T. brucei. To be noted: cited from earlier work.
Data set [5] concerns L. donovani amastigotes (strain MHOM/ET/67/L82). The data set is described as follows: Antileishmanial activity on L. donovani (axenic amastigote assay). The data set is classed as cell-based, Leishmania donovani. To be noted: for IC50: 72 h, axenic amastigotes, mean ± margin of deviation of two independent determinations. The procedure:
Fifty µL of SM medium at pH 5.4 supplemented with 10% heat-inactivated FBS, was added to each well of a 96-well microtiter plate. Serial drug dilutions were prepared covering a range from 100.0 to 0.002 µM. Then 10^5 axenically grown L. donovani amastigotes (strain MHOM/ET/67/L82) in 50.0 µL medium were added to each well and the plate incubated at 37 °C under a 5% CO2 atmosphere for 72 h. Resazurin solution (10.0 µL, 12.5 mg resazurin dissolved in 100 mL distilled water) were then added to each well and incubation continued for a further 2–4 h. The plate was then read in a Spectramax Gemini XS microplate fluorometer (Molecular Devices, Sunnyvale, CA, USA) using an excitation wavelength of 536 nm and emission wavelength of 588 nm. Fluorescence development was measured and expressed as percentage of the control. Data were transferred into the graphic programme Softmax Pro (Molecular Devices) which calculated IC50 values from the sigmoidal inhibition curves.

Data set [6] has as its system malarial parasite. The arrangement: method as in PMID 21157686. The note with it: cited from earlier work.
Where [7] appears, read: L6 cells (rat skeletal myoblasts).
Where [8] appears, read: 72 h; mean ± margin of deviation of two independent determinations; read-out: IC50 Values T. b. rhodesiense.
Setting [9] is: Trypanosoma brucei, 72 h; mean ± margin of deviation of two independent determinations; read-out: IC50 Values T. b. rhodesiense.
Where [10] appears, read: Plasmodium falciparum, NF54, NF54 strain, mean ± margin of deviation of two independent determinations, read-out: IC50 Values P. falciparum.
Where [11] appears, read: Plasmodium falciparum, NF54, read-out: IC50 Values P. falciparum.

Broadly, the IC50 is the midpoint of a concentration-inhibition curve.

On to `C=C1CCC2(O)C(=C)COC2C=C(C)CCC(O)C2(C)CCC1O2` (centres unmarked) [Compound 13, crassumol E], for which the IC50 in data set [1] (setting [7]) was 43 ± 2.6 µM; in data set [2] (setting [8]) it was 0.72 ± 0.04 µM; in data set [2] (setting [9]), no more than 1 µM; in data set [3] (setting [10]), 7.43 ± 0.86 µM. Further, the “Activity against bloodstream forms of T. brucei (in words)” value (“Activity against bloodstream forms” below) in data set [2] is “showed activity”. For the same compound, the “Selectivity index, times more active against Tbr than against L6 cells” value (shortened to “Selectivity index, times more active”) in data set [2] (L6 vs Tbr) is 60.
Turning to `CCN(CC)CCCC(C)Nc1ccnc2cc(Cl)ccc12` (centres unmarked) [Chloroquine, reference compound], the values for the IC50 in data set [1] and in data set [3] (setting [11]) were 120 ± 27.5 µM and 0.004 µM, respectively.
Turning to `C=C1CO[C@H]2/C=C(\C)CC[C@@H]3O[C@]3(C)CC/C=C(\C)CC[C@@]12O` [Compound 11, laevigatol B], the “In vitro activity against T. brucei (in words)” value in data set [4] is given as “active”.
Consider `CC1=C2CCC3(C)OC2(OC1)C1C3CCC(C)(O)C2CCC1(C)O2` (centres unmarked) [Compound 12, crassumol D], for which the IC50 is 58.7 ± 1 µM in data set [1] (setting [7]), 0.61 ± 0.01 µM in data set [2] (setting [8]) and no more than 1 µM in data set [2] (setting [9]). The “Activity against bloodstream forms” value in data set [2] is recorded as “showed activity”. Besides, the “Selectivity index, times more active” value in data set [2] (L6 vs Tbr) is listed as 96.
For `C=C(C)C1CC(=O)CC2OC(C)(CC2=O)CC2C=C(C(=O)O2)C(OC)C1` (stereo not drawn) [Compound 21, 13-Epi-scabrolide C], the figures for the IC50 in data set [1] (setting [7]) and in data set [2] (setting [9]) were 47.5 ± 6 µM and 11.8 ± 4.46 µM, respectively. Also, in data set [2], the “Activity against bloodstream forms” value was “showed activity”.
With `C/C1=C\[C@@H]2O[C@@H](O)[C@@]3(C)O[C@@]23CC/C(C)=C/CC[C@](C)(O)[C@@H](O)CC1` [Compound 6, Lobocrasol A], the IC50 in data set [1] (setting [7]) is 56 ± 3.65 µM; in data set [5] (Leishmania donovani), less than 0.2 µM; in data set [5], 0.18 ± 0.02 µM; in data set [2] (setting [9]), 9.97 ± 0.64 µM. The “Antileishmanial activity (in words)” value in data set [5] is “strongly and selectively active”. The “Activity against bloodstream forms” value in data set [2] is listed as “showed activity”.
In the case of `C=C1CCC(C(C)C)C=CC(C)(O)CC=CC(C)(O)CCC1O` [Compound 16, (1S,2E,4S,6E,8S,11S)-2,6,12(20)-cembrantriene-4,8,11-triol], the values for the IC50 in data set [1] (setting [7]), in data set [2] (setting [8]) and in data set [2] (setting [9]) were 48.6 ± 3.45 µM, 0.65 ± 0.01 µM and no more than 1 µM, respectively. Besides, the “Activity against bloodstream forms” value in data set [2] is given as “showed activity”. In addition, the “Selectivity index, times more active” value in data set [2] (L6 vs Tbr) is 75.
On to `C/C1=C\[C@@H]2O[C@@H](O)[C@@]3(C)O[C@@]23CC/C(C)=C/CC[C@@]2(C)O[C@H]2CC1` [Compound 10, laevigatol A], for which the IC50 in data set [1] (setting [7]) was 28.8 ± 10.3 µM; in data set [2] (setting [9]), greater than 20 µM; in data set [3] (NF54 strain, mean ± margin of deviation of two independent determinations, read-out: IC50 Values P. falciparum), < 5 µM and 3.02 µM; in data set [3] (setting [10]) it was 3 µM. In addition, the “Selectivity index SI = IC50(L6)/IC50(parasite), P. falciparum” value in data set [3] (L6 vs Pf) amounted to 9.52.
Take `C/C1=C\CC/C(C)=C/C[C@](O)(C(C)C)CC/C(C)=C/CC1` [serratol, reference compound]: the “Activity against the malarial parasite (in words)” value in data set [6] was “some activity”. Further, the “In vitro activity against T. brucei (in words)” value in data set [4] is on record as “also showed such activity”.
`C=C1CCC2=C(C)C(=O)OC2C=C(C)CCC(O)C2(C)CCC1O2` (centres unmarked) [Compound 15, Crassumol G]: the IC50 in data set [1] (setting [7]) was determined as 33.2 ± 13.5 µM; in data set [2] (setting [9]), 12.2 ± 0.1 µM; in data set [3] (setting [10]) it was 7.57 ± 0.59 µM. In data set [2], the “Activity against bloodstream forms” value is “showed activity”.
As for `C=C(C)C1CC=C(C(=O)OC)CC(=O)CC(C)(O)C(O)C2=CC(C(=O)OC)=C(C1)O2` (centres unmarked) [Compound 17, Sinumaximol A], the IC50 in data set [1] was 45 ± 2.9 µM; in data set [2] (Trypanosoma brucei; 72 h; mean ± margin of deviation of two independent determinations; read-out: IC50 Values T. b. rhodesiense), greater than 20 µM; in data set [3] (setting [11]), 7.2 ± 0.71 µM.
In the case of `C/C1=C\[C@@H]2O[C@@H](O)[C@@]3(C)O[C@@]23CC/C(C)=C/CC[C@](C)(O)[C@H](O)CC1` [Compound 7, lobocrasol B], the “Antileishmanial activity (in words)” value in data set [5] is reported as “devoid of antileishmanial activity”.
For the compound `C=C(C)C1CCC23OC2C(CC(C)(O)C=C2C=C(C(=O)OC)C(OC)(C1)O2)OC3=O` (centres unmarked) [Compound 18, Sinumaximol C], the IC50 in data set [1] (setting [7]) was 28.7 ± 9.95 µM; in data set [2] (setting [9]), 9.88 ± 1.93 µM. Moreover, in data set [2], the “Activity against bloodstream forms” value is “showed activity”.
`C=C1CO[C@H]2/C=C(\C)CC[C@@H](O)[C@@](C)(O)C/C=C/[C@](C)(O)CC[C@@]12O` [Compound 8, lobocrasol C]: the IC50 in data set [1] (setting [7]) is 40.5 ± 7.75 µM; in data set [5] (Leishmania donovani), less than 0.2 µM; in data set [5] it was 0.17 ± 0.05 µM; in data set [2] (setting [9]) it was 9.37 ± 0.74 µM; in data set [3] (setting [10]) it was 7.37 ± 0.35 µM. For the same compound, the “Antileishmanial activity (in words)” value in data set [5] is “strongly and selectively active”. Moreover, the “Activity against bloodstream forms” value in data set [2] was “showed activity”.
Regarding `CCCCCCCCCCCCCCCCOP(=O)([O-])OCC[N+](C)(C)C` [Miltefosine, reference compound], the IC50 worked out at 143 ± 35.3 µM in data set [1] (setting [7]) and 0.14 ± 0.05 µM in data set [5] (Leishmania donovani).
In the case of `COC(=O)C(C)C1=CC=C(C)CCC2OC2(C)CCC=C(C)CC1` (stereo not drawn) [Compound 1, 7S,8S-epoxy-1,3,11-cembratriene-16-oic methyl ester], the IC50 in data set [1] (setting [7]) was greater than 54 µM; in data set [2] (setting [8]) it was 1 ± 0.19 µM; in data set [2] (setting [9]), no more than 1 µM; in data set [3] (setting [10]) it was 22.95 ± 0.15 µM. Also, in data set [2], the “Activity against bloodstream forms” value is given as “showed activity”.
With `CC1=CCCC(C)(O)C=CC(C(C)C)CCC(C)=CCC1` [Compound 2, (1R,4R,2E,7E,11E)-cembra-2,7,11-trien-4-ol], the half-inhibitory concentration (IC50) in data set [1] (setting [7]) is 49.4 ± 5.2 µM; in data set [2] (setting [8]) it was 1.14 ± 0.5 µM; in data set [2] (setting [9]), no more than 1 µM; in data set [3] (setting [10]), 14.8 ± 0.9 µM. Besides, the “Activity against bloodstream forms” value in data set [2] is given as “showed activity”. Moreover, the “Selectivity index, times more active” value in data set [2] (L6 vs Tbr) was determined as 43.
Turning to `Nc1nc(N)nc(Nc2ccc([As]3SCC(CO)S3)cc2)n1` (centres unmarked) [Melarsoprol, reference compound], the IC50 amounted to 28.9 ± 9.3 µM in data set [1] and 0.005 µM in data set [2] (Trypanosoma brucei, 72 h, read-out: IC50 Values T. b. rhodesiense).
